Measurements taken from patent US20240424111A1, “Degrader Compounds and Uses Thereof” (CALICO LIFE SCIENCES LLC, priority 2021, published 2024).

How the values were obtained:
[1] = biological target: T1, PTPN2 (Homo sapiens, UniProt P17706); test: HiBiT PTPN2 degradation in 293T.109 (HiBiT-PTPN2) cells, 24 hours; type: cell-based; settings: 293T.109 cells
T1 construct: expressed in transfected cells; host or cells: 293T.109 (HiBiT-PTPN2), derived from 293T WT (ATCC)
T1 sequence (P17706 1-415): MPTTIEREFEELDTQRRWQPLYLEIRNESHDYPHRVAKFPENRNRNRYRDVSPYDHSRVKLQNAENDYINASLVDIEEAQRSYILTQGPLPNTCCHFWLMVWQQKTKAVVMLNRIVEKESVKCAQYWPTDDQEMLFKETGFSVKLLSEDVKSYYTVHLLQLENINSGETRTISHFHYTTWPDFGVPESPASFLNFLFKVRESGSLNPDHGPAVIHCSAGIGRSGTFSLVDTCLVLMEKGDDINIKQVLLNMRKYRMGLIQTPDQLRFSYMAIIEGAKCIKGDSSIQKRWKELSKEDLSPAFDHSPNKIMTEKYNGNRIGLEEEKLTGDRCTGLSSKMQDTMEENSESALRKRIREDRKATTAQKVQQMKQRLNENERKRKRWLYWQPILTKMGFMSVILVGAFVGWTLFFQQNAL
Description: Dulbecco's modified Eagle medium (DMEM) without phenol red and fetal bovine serum (FBS) were purchased from Gibco (Grand Island, NY, USA). Nano-Glo® HiBiT Lytic Assay System was purchased from Promega (Medison, WI, USA). 293T. 109 (HiBiT-PTPN2) cell line was generated by ectopically expressing PTPN2 with N-terminal HiBiT fusion tag in 293T WT cell line purchased from ATCC (Manassas, VA, USA). Cell culture flasks and 384-well microplates were acquired from VWR (Radnor, PA, USA).
PTPN2 Degradation Analysis
(§1) PTPN2 degradation was determined based on quantification of luminescent signal using Nano-Glo® HiBiT Lytic Assay kit. Test compounds were added to the 384-well plate from a top concentration of 10 μM with 11 points, half log titration in duplicates. 293T. 109 cells were added into 384-well plates at a cell density of 5000 cells per well. The plates were kept at 37° C. with 5% CO2 for 24 hours. The cells treated in the absence of the test compound were the negative control and the cells without Nano-Glo® HiBiT Lytic reagent were the positive control. After 24-hour incubation, Nano-Glo® HiBiT Lytic Assay reagents were added to the cells. Luminescence was acquired on EnVision™ Multilabel Reader (PerkinElmer, Santa Clara, CA, USA).

[2] = biological target: T2, PTPN2 (Mus musculus, UniProt Q06180); test: HiBiT PTPN2 degradation in B16F10.4 cells, 24 hours; type: cell-based
T2 construct: HiBiT; host or cells: B16F10.4
T2 sequence (Q06180 1-406): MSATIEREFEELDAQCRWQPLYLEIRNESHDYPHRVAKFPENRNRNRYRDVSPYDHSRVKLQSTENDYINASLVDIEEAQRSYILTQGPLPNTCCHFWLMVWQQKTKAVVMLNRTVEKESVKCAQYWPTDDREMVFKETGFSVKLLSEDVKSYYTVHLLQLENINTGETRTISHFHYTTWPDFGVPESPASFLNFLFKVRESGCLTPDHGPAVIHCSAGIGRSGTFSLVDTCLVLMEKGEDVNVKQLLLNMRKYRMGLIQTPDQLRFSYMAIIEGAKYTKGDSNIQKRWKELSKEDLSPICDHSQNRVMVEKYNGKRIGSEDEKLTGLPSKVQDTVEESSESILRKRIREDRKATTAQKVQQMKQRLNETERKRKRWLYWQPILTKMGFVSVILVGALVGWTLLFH
Experimental: as §1

| Structure (SMILES) | DC50 [1] [nM] | DC50 [2] [nM] |
| --- | --- | --- |
| Cn1c(=O)n(C2CCC(=O)NC2=O)c2ccc(Cc3ccc(CC(=O)Nc4ccc5c(F)c(N6CC(=O)NS6(=O)=O)c(O)cc5c4)cc3)cc21 (stereo not drawn) [Degrader 136] | < 50 | 50 to 150 |
| CCn1c(=O)n(C2CCC(=O)NC2=O)c2ccc([C@H]3CCN(CC(=O)Nc4ccc5c(F)c(N6CC(=O)NS6(=O)=O)c(O)cc5c4)C[C@@H]3F)cc21 (single isomer, unassigned) [Degrader 130] | 150 to 500 | 150 to 500 |
| Cn1c(=O)n(C2CCC(=O)NC2=O)c2ccc(-c3cccc(CC(=O)Nc4ccc5c(F)c(N6CC(=O)NS6(=O)=O)c(O)cc5c4)c3)cc21 (stereo not drawn) [Degrader 77] | 150 to 500 | ≥ 500 |
| Cn1c(=O)n([C@@H]2CCC(=O)NC2=O)c2ccc(N3CCC(CC(=O)Nc4ccc5c(F)c(N6CC(=O)NS6(=O)=O)c(O)cc5c4)CC3)cc21 [Degrader 21] | 50 to 150 | 50 to 150 |
| Cn1c(=O)n([C@@H]2CCC(=O)NC2=O)c2ccc(-c3ccc(CC(=O)Nc4ccc5c(F)c(N6CC(=O)NS6(=O)=O)c(O)cc5c4)cc3)cc21 [Degrader 26] | 50 to 150 | < 50 |
| Cn1c(=O)n(C2CCC(=O)NC2=O)c2cccc(N3CCC[C@@H](OCC(=O)Nc4ccc5c(F)c(N6CC(=O)NS6(=O)=O)c(O)cc5c4)C3)c21 (stereo partly drawn) [Degrader 135] | ≥ 500 | ≥ 500 |
| Cn1c(=O)n(C2CCC(=O)NC2=O)c2ccc(-c3ccc(NC(=O)Nc4ccc5c(F)c(N6CC(=O)NS6(=O)=O)c(O)cc5c4)cc3)cc21 (stereo not drawn) [Degrader 73] | 50 to 150 | 50 to 150 |
| Cn1c(=O)n(C2CCC(=O)NC2=O)c2ccc(C3CCN(CCC(C)(C)CCOc4ccc5cc(O)c(N6CC(=O)NS6(=O)=O)c(F)c5c4)CC3)cc21 (stereo not drawn) [Degrader 7] | < 50 | 150 to 500 |
| COC1(CC(=O)Nc2ccc3c(F)c(N4CC(=O)NS4(=O)=O)c(O)cc3c2)CCN(c2ccc3c(c2)n(C)c(=O)n3C2CCC(=O)NC2=O)CC1 (stereo not drawn) [Degrader 99] | < 50 | 50 to 150 |
| Cn1c(=O)n(C2CCC(=O)NC2=O)c2ccc(C3CCN(CC4CC4C(=O)N4CC(Oc5ccc6cc(O)c(N7CC(=O)NS7(=O)=O)c(F)c6c5)C4)CC3)cc21 (stereo not drawn) [Degrader 14] | 50 to 150 | 150 to 500 |
| Cn1c(=O)n(C2CCC(=O)NC2=O)c2ccc3c(c21)CCCN3CCCC(=O)Nc1ccc2c(F)c(N3CC(=O)NS3(=O)=O)c(O)cc2c1 (stereo not drawn) [Degrader 145] | ≥ 500 | ≥ 500 |
| Cn1cc(N2CCC(=O)NC2=O)c2cc(F)c(-c3ccc(CC(=O)Nc4ccc5c(F)c(N6CC(=O)NS6(=O)=O)c(O)cc5c4)cc3)cc21 [Degrader 125] | 150 to 500 | 150 to 500 |
| C[C@H]1CN(CC(=O)Nc2ccc3c(F)c(N4CC(=O)NS4(=O)=O)c(O)cc3c2)CCN1c1ccc2c(c1F)n(C)c(=O)n2C1CCC(=O)NC1=O (stereo partly drawn) [Degrader 66] | 150 to 500 | ≥ 500 |
| Cn1c(=O)n(C2CCC(=O)NC2=O)c2ccc3c(c21)CCCN3C1CCN(CC(=O)Nc2ccc3c(F)c(N4CC(=O)NS4(=O)=O)c(O)cc3c2)CC1 (stereo not drawn) [Degrader 75] | ≥ 500 | ≥ 500 |
| O=C1CCC(n2c(=O)n(C3COC3)c3cc(C4CCN(CC(=O)Nc5ccc6c(F)c(N7CC(=O)NS7(=O)=O)c(O)cc6c5)CC4)ccc32)C(=O)N1 (stereo not drawn) [Degrader 9] | 150 to 500 | 150 to 500 |
| C[C@H]1CN(c2ccc3c(c2)n(C)c(=O)n3C2CCC(=O)NC2=O)CC[C@@H]1CC(=O)Nc1ccc2c(F)c(N3CC(=O)NS3(=O)=O)c(O)cc2c1 (stereo partly drawn) [Degrader 133] | 50 to 150 | 50 to 150 |
| Cn1c(=O)n(C2CCC(=O)NC2=O)c2ccc(C3CCN(CC(=O)N4CCC(Oc5ccc6cc(O)c(N7CC(=O)NS7(=O)=O)c(F)c6c5)CC4)CC3(F)F)cc21 (stereo not drawn) [Degrader 10] | 50 to 150 | 150 to 500 |
| Cn1nc(N2CCC(=O)NC2=O)c2cc(F)c(N3CCC(CC(=O)Nc4ccc5c(F)c(N6CC(=O)NS6(=O)=O)c(O)cc5c4)CC3)cc21 [Degrader 134] | 50 to 150 | 150 to 500 |

| Structure (SMILES) | DC50 [1] [nM] | DC50 [2] [nM] |
| --- | --- | --- |
| CCn1nc(C2CCC(=O)NC2=O)c2ccc(C3CCN(CC(=O)Nc4ccc5c(F)c(N6CC(=O)NS6(=O)=O)c(O)cc5c4)CC3(F)F)cc21 (stereo not drawn) [Degrader 11] | 50 to 150 | 150 to 500 |
| C[C@H](C(=O)Nc1ccc2c(F)c(N3CC(=O)NS3(=O)=O)c(O)cc2c1)N1CCC(c2ccc3c(c2)n(C)c(=O)n3C2CCC(=O)NC2=O)CC1 (stereo partly drawn) [Degrader 103] | < 50 | ≥ 500 |
| Cn1c(=O)n(C2CCC(=O)NC2=O)c2cccc(N3CCC(CCNC(=O)Nc4ccc5c(F)c(N6CC(=O)NS6(=O)=O)c(O)cc5c4)CC3)c21 (stereo not drawn) [Degrader 62] | 150 to 500 | 150 to 500 |
| Cn1c(=O)n(C2CCC(=O)NC2=O)c2ccc([C@@H]3CCN(CC(=O)Nc4ccc5c(F)c(N6CC(=O)NS6(=O)=O)c(O)cc5c4)C[C@H]3F)cc21 (stereo partly drawn) [Degrader 38] | < 50 | < 50 |
| CCn1c(=O)n(C2CCC(=O)NC2=O)c2ccc(N3CCC(CC(=O)Nc4ccc5c(F)c(N6CC(=O)NS6(=O)=O)c(O)cc5c4)CC3)cc21 (stereo not drawn) [Degrader 22] | 50 to 150 | 50 to 150 |
| C[C@@H]1CN(c2ccc3c(c2)n(C)c(=O)n3C2CCC(=O)NC2=O)CCN1CC(=O)Nc1ccc2c(F)c(N3CC(=O)NS3(=O)=O)c(O)cc2c1 (stereo partly drawn) [Degrader 91] | 50 to 150 | 150 to 500 |
| Cc1cc(CC(=O)Nc2ccc3c(F)c(N4CC(=O)NS4(=O)=O)c(O)cc3c2)ccc1N(C)c1ccc2c(c1)n(C)c(=O)n2C1CCC(=O)NC1=O (stereo not drawn) [Degrader 87] | 50 to 150 | 50 to 150 |
| Cn1nc(C2CCC(=O)NC2=O)c2ccc(Oc3ccc(CC(=O)Nc4ccc5c(F)c(N6CC(=O)NS6(=O)=O)c(O)cc5c4)cc3)cc21 (stereo not drawn) [Degrader 39] | 50 to 150 | 150 to 500 |
| Cn1c(=O)n(C2CCC(=O)NC2=O)c2ccc(N3CCC(CNC(=O)Nc4ccc5c(F)c(N6CC(=O)NS6(=O)=O)c(O)cc5c4)CC3)cc21 (stereo not drawn) [Degrader 89] | 50 to 150 | 50 to 150 |
| Cn1c(=O)n(C2CCC(=O)NC2=O)c2ccc([C@H]3CCN(CC(=O)Nc4ccc5c(F)c(N6CC(=O)NS6(=O)=O)c(O)cc5c4)C[C@@H]3F)cc21 (stereo partly drawn) [Degrader 37] | 50 to 150 | 50 to 150 |
| Cn1c(=O)n(C2CCC(=O)NC2=O)c2ccc(-n3ccc4cc(CC(=O)Nc5ccc6c(F)c(N7CC(=O)NS7(=O)=O)c(O)cc6c5)ccc43)cc21 (stereo not drawn) [Degrader 120] | 150 to 500 | 50 to 150 |
| O=C1CCC(N2C(=O)c3cccc4c(N5CCC(CC(=O)Nc6ccc7c(F)c(N8CC(=O)NS8(=O)=O)c(O)cc7c6)CC5)ccc2c34)C(=O)N1 (stereo not drawn) [Degrader 143] | 50 to 150 | < 50 |
| Cn1c(=O)n(C2CCC(=O)NC2=O)c2ccc([C@H]3CCCN(CC(=O)Nc4ccc5c(F)c(N6CC(=O)NS6(=O)=O)c(O)cc5c4)C3)cc21 (stereo partly drawn) [Degrader 151] | 150 to 500 | 150 to 500 |
| Cn1c(=O)n(C2CCC(=O)NC2=O)c2ccc([C@@H]3CCN(CC(=O)Nc4ccc5c(F)c(N6CC(=O)NS6(=O)=O)c(O)cc5c4)C[C@H]3O)cc21 (stereo partly drawn) [Degrader 111] | < 50 | 50 to 150 |
| Cc1cc(C(C)C(=O)Nc2ccc3c(F)c(N4CC(=O)NS4(=O)=O)c(O)cc3c2)ccc1Nc1ccc2c(c1)n(C)c(=O)n2C1CCC(=O)NC1=O (stereo not drawn) [Degrader 94] | 150 to 500 | 50 to 150 |
| Cn1c(=O)n(C2CCC(=O)NC2=O)c2ccc(-c3ccc(CC(=O)Nc4ccc5c(F)c(N6CC(=O)NS6(=O)=O)c(O)cc5c4)cc3)cc21 (stereo not drawn) [Degrader 25] | < 50 | < 50 |
| COc1cc(CC(=O)Nc2ccc3c(F)c(N4CC(=O)NS4(=O)=O)c(O)cc3c2)ccc1-c1ccc2c(c1)n(C)c(=O)n2C1CCC(=O)NC1=O (stereo not drawn) [Degrader 69] | 150 to 500 | 150 to 500 |
| Cn1c(=O)n(C2CCC(=O)NC2=O)c2ccc(N3CC4(CC(OCC(=O)Nc5ccc6c(F)c(N7CC(=O)NS7(=O)=O)c(O)cc6c5)C4)C3)cc21 (stereo not drawn) [Degrader 96] | 50 to 150 | 150 to 500 |
